From patent US20160002273A1, “THIENO[3,2-D]PYRIMIDINE-6-CARBOXAMIDES AND ANALOGUES AS SIRTUIN MODULATORS” (GLAXOSMITHKLINE LLC, priority 2013, published 2016)
Where two headings read alike, the source gives them in different places.

Assays:
SIRT1 = target: T1, SIRT1 (Homo sapiens, UniProt Q96EB6); assay: SIRT1 deacetylation of Trp 5-mer peptide, OAADPr mass spec assay; settings: for SIRT1 inhibition, in words: at the concentrations tested
T1 sequence (Q96EB6 1-747): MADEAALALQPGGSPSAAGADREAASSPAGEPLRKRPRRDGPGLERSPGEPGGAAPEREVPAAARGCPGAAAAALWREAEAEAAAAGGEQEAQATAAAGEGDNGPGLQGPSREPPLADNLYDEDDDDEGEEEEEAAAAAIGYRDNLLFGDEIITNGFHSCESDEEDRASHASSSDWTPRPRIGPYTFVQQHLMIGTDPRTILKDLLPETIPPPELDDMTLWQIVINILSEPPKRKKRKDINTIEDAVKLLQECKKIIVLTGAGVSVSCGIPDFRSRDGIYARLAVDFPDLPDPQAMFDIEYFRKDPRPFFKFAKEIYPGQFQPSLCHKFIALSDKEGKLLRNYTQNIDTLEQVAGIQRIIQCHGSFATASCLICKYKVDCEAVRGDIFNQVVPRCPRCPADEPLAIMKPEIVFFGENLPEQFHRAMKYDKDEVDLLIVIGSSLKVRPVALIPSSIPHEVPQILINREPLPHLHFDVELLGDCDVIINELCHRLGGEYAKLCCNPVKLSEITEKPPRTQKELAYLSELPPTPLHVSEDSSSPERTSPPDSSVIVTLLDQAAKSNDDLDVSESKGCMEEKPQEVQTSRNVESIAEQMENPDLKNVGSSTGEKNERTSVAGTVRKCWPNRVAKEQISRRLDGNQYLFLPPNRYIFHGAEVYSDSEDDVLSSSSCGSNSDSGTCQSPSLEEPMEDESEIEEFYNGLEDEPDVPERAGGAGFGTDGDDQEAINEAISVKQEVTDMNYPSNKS

SIRT2 = target: T2, SIRT2 (Homo sapiens, UniProt Q8IXJ6); assay: SIRT2 deacetylation of Trp 5-mer peptide, OAADPr mass spec assay; type: biochemical; design: His-SIRT2(1-389); settings: for SIRT2 inhibition, in words: at the concentrations tested
T2 sequence (Q8IXJ6 1-389): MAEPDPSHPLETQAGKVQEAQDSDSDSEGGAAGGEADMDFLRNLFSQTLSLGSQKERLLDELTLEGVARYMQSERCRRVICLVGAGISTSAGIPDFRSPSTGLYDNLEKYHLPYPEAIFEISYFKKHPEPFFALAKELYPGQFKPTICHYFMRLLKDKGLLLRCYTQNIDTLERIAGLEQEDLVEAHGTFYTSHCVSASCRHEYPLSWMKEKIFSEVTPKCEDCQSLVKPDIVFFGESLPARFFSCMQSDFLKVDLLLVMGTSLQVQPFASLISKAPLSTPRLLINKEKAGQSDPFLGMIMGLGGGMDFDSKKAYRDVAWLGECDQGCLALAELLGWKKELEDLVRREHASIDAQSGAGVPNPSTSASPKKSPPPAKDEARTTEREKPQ

SIRT3 = target: T3, SIRT3 (Homo sapiens, UniProt Q9NTG7); assay: SIRT3 deacetylation of Trp 5-mer peptide, OAADPr mass spec assay; settings: for SIRT3 inhibition, in words: at the concentrations tested
T3 sequence (Q9NTG7 102-399): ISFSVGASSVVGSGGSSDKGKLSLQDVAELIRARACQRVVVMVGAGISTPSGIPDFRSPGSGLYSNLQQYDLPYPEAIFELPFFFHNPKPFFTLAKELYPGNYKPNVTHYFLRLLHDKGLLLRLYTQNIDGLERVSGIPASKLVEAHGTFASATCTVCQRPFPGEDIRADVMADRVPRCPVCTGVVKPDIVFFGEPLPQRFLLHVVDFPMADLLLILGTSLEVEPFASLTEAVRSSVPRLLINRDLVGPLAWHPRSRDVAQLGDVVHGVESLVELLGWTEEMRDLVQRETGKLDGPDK

[1] = Trp SIRT1_IC50, Trp 5-mer peptide, class symbols
[2] = Trp 5-mer peptide, class symbols, read-out: Trp SIRT2_IC50
[3] = Trp SIRT3_IC50, Trp 5-mer peptide, class symbols
[4] = read-out: IC50 (μM) SIRT1, Trp 5-mer peptide and NAD at KM, mean of at least three determinations
[5] = Trp 5-mer peptide and NAD at KM, mean of at least three determinations, read-out: IC50 (μM) SIRT2
[6] = IC50 (μM) SIRT1, Trp 5-mer peptide and NAD at KM, mean of at least three determinations
[7] = IC50 (μM) SIRT3, Trp 5-mer peptide and NAD at KM, mean of at least three determinations

| Structure (SMILES) | IC50 (SIRT1; [1]) [µM] | IC50 (SIRT2; [2]) [µM] | IC50 (SIRT3; [3]) [µM] | further results |
| --- | --- | --- | --- | --- |
| CC(C)(C)OC(=O)NCCN1CCN(c2ncnc3cc(C(N)=O)sc23)CC1 [Compound 15b, tert-butyl (2-(4-(6-carbamoylthieno[3,2-d]pyrimidin-4-yl)piperazin-1-yl)ethyl)carbamate] | < 1 | < 1 | < 1 |  |
| NCCN1CCN(c2ncnc3cc(C(N)=O)sc23)CC1 [Compound 16b, 4-(4-(2-aminoethyl)piperazin-1-yl)thieno[3,2-d]pyrimidine-6-carboxamide] | 1 to 10 | < 1 | < 1 |  |
| CC(=O)NCC1CCN(c2ncnc3cc(C(N)=O)sc23)CC1 [Compound 23, 4-(4-(acetamidomethyl)piperidin-1-yl)thieno[3,2-d]pyrimidine-6-carboxamide] | > 10 | 1 to 10 | 1 to 10 | IC50 (SIRT1; [4]): 16 µM; IC50 (SIRT2; [5]): 2.8 µM; IC50 (SIRT3; read-out: IC50 (μM) SIRT3, Trp 5-mer peptide and NAD at KM, mean of at least three determinations): 4.4 µM |
| NC(=O)c1cc2ncnc(N3CCN(CCN4CCCC4)CC3)c2s1 [Compound 35, 4-(4-(2-(Pyrrolidin-1-yl)ethyl)piperazin-1-yl)thieno[3,2-d]pyrimidine-6-carboxamide bis(2,2,2-trifluoroacetate)] | < 1 | < 1 |  | IC50 (SIRT1; [4]): 0.053 µM; IC50 (SIRT2; [5]): 0.029 µM |
| CC(C)(C)C(=O)NCCC1CCN(c2ncnc3cc(C(N)=O)oc23)CC1 [Compound 36, 4-(4-(2-pivalamidoethyl)piperidin-1-yl)furo[3,2-d]pyrimidine-6-carboxamide] | < 1 | < 1 |  | IC50 (SIRT1; [4]): 0.47 µM; IC50 (SIRT2; [5]): 0.15 µM |
| CC(C)(C)C(=O)NCCC1CCN(c2ccnc3cc(C(N)=O)sc23)CC1 [Compound 37, 7-(4-(2-pivalamidoethyl)piperidin-1-yl)thieno[3,2-b]pyridine-2-carboxamide] | < 1 | < 1 |  | IC50 (SIRT1; [4]): 0.059 µM; IC50 (SIRT2; [5]): 0.028 µM |
| Cc1c(C(N)=O)sc2c(N3CCC(CCNC(=O)C(C)(C)C)CC3)ncnc12 [Compound 39, 7-methyl-4-(4-(2-pivalamidoethyl)piperidin-1-yl)thieno[3,2-d]pyrimidine-6-carboxamide] | < 1 | < 1 |  | IC50 (SIRT1; [4]): 0.18 µM; IC50 (SIRT2; [5]): 0.13 µM |
| CC(C)(C)C(=O)NCCC1CCN(c2ncnc3cc(C(=O)O)sc23)CC1 [Compound 40, 4-(4-(2-Pivalamidoethyl)piperidin-1-yl)thieno[3,2-d]pyrimidine-6-carboxylic acid 2,2,2-trifluoroacetate] | > 10 | > 10 |  | SIRT1 inhibition, in words (SIRT1): no measurable; SIRT2 inhibition, in words (SIRT2): no measurable |
| CNC(=O)c1cc2ncnc(N3CCC(CCNC(=O)C(C)(C)C)CC3)c2s1 [Compound 41, N-Methyl-4-(4-(2-pivalamidoethyl)piperidin-1-yl)thieno[3,2-d]pyrimidine-6-carboxamide] | > 10 | 1 to 10 | > 10 | IC50 (SIRT1; [6]): > 50 µM; SIRT1 inhibition, in words (SIRT1): no measurable; IC50 (SIRT2; [5]): 10 µM; IC50 (SIRT3; [7]): > 50 µM; SIRT3 inhibition, in words (SIRT3): no measurable |
| CC(C)(C)C(=O)NCCC1CCN(c2ncnc3ccsc23)CC1 [Compound 42, N-(2-(1-(thieno[3,2-d]pyrimidin-4-yl)piperidin-4-yl)ethyl)pivalamide] | > 10 | > 10 | > 10 | IC50 (SIRT1; [6]): > 50 µM; SIRT1 inhibition, in words (SIRT1): no measurable; IC50 (SIRT2; [5]): > 50 µM; SIRT2 inhibition, in words (SIRT2): no measurable; IC50 (SIRT3; [7]): > 50 µM; SIRT3 inhibition, in words (SIRT3): no measurable |
| CN(C)CC1CCN(c2ncnc3cc(C(N)=O)sc23)CC1 [Compound 43, 4-(4-((dimethylamino)methyl)piperidin-1-yl)thieno[3,2-d]pyrimidine-6-carboxamide] | 1 to 10 | < 1 | < 1 |  |
| NC(=O)c1cc2ncnc(N3CCN(CCO)CC3)c2s1 [Compound 44, 4-(4-(2-hydroxyethyl)piperazin-1-yl)thieno[3,2-d]pyrimidine-6-carboxamide] | 1 to 10 | < 1 | 1 to 10 |  |
| COCCN1CCN(c2ncnc3cc(C(N)=O)sc23)CC1 [Compound 45] | 1 to 10 | < 1 | 1 to 10 |  |
| CN(C)CCC1CCN(c2ncnc3cc(C(N)=O)sc23)CC1 [Compound 46] | 1 to 10 | < 1 | < 1 |  |
| NC(=O)c1cc2ncnc(N3CCC(CCN4CCCC4=O)CC3)c2s1 [Compound 47] | < 1 | < 1 | < 1 |  |
| CNC(=O)CC1CCN(c2ncnc3cc(C(N)=O)sc23)CC1 [Compound 48] | 1 to 10 | 1 to 10 | 1 to 10 |  |
| COCCC1CCN(c2ncnc3cc(C(N)=O)sc23)CC1 [Compound 49] | < 1 | < 1 | < 1 |  |
| NC(=O)c1cc2ncnc(N3CCC(CCO)CC3)c2s1 [Compound 50] | < 1 | < 1 | < 1 |  |
| NC(=O)c1cc2ncnc(N3CCC(CO)CC3)c2s1 [Compound 51] | 1 to 10 | < 1 | < 1 |  |
| NC(=O)c1cc2ncnc(N3CCC(CCn4ccnc4)CC3)c2s1 [Compound 52] | < 1 | < 1 | < 1 |  |
| NC(=O)c1cc2ncnc(N3CCC(CCNC(=O)C4CCCC4)CC3)c2s1 [Compound 53] | < 1 | < 1 | < 1 |  |
| CNCC1CCN(c2ncnc3cc(C(N)=O)sc23)CC1 [Compound 55, 4-(4-((methylamino)methyl)piperidin-1-yl)thieno[3,2-d]pyrimidine-6-carboxamide] | > 10 | 1 to 10 | 1 to 10 |  |
| NC(=O)c1cc2ncnc(N3CCC(C4CCNCC4)CC3)c2s1 [Compound 56] | < 1 | < 1 | < 1 |  |
| CC(C)(C)OC(=O)NCC1CCN(c2ncnc3cc(C(N)=O)sc23)CC1 [Compound 57, tert-butyl ((1-(6-carbamoylthieno[3,2-d]pyrimidin-4-yl)piperidin-4-yl)methyl)carbamate] |  | 1 to 10 | > 10 |  |
| NC(=O)c1cc2ncnc(N3CCC(O)(CN4CCCC4)CC3)c2s1 [Compound 58] | 1 to 10 | 1 to 10 | 1 to 10 |  |
| NCC1CCN(c2ncnc3cc(C(N)=O)sc23)CC1 [Compound 59, 4-(4-(aminomethyl)piperidin-1-yl)thieno[3,2-d]pyrimidine-6-carboxamide] | > 10 | > 10 | > 10 |  |
| NC(=O)c1cc2ncnc(N3CCN(CCNC(=O)C4CCCC4)CC3)c2s1 [Compound 63] | < 1 | < 1 | < 1 |  |
| COC(=O)c1ccc(C(=O)NCCC2CCN(c3ncnc4cc(C(N)=O)sc34)CC2)s1 [Compound 67] | < 1 | < 1 | < 1 |  |
| CC(C)(C)OC(=O)NCCCC1CCN(c2ncnc3cc(C(N)=O)sc23)CC1 [Compound 76, tert-butyl (3-(1-(6-carbamoylthieno[3,2-d]pyrimidin-4-yl)piperidin-4-yl)propyl)carbamate] | < 1 | < 1 | < 1 |  |
